According to US10456387B2, “Phacetoperane for treating of attention deficit hyperactivity disorder” (NLS PHARMA AG, priority 2011, dated 2019):

Assays:
young Wistar rats [1] = test: T-maze test, a model of ADHD (ability to wait / impulsiveness); assay type: in vivo, rat; conditions: for Efficacy compared with methylphenidate in the ability to wait: BLK-010 1 mg/kg IP vs methylphenidate 3 mg/kg IP; for Effect on ability to wait relative to the control: administered IP before the test, BLK-010 1 mg/kg; for Effect on ability to wait relative to the control / Mean, Medication (choices of the large reward deferred by 30 s) / Mean, Cont-Post (choices of the large reward deferred by 30 s): methylphenidate 3 mg/kg; for Mean, Medication (choices of the large reward deferred by 30 s): medication sessions, IP 30 min before test; for Mean, Cont-Post (choices of the large reward deferred by 30 s): post-medication control sessions, one day after medication session 2, phacetoperane 1 mg/kg IP; for Mean, Cont-Pre (choices of the large reward deferred by 30 s): pre-medication control sessions, before any drug, male juvenile Wistar rats, n = 6, sessions of 5 tests
young Wistar rats [2] = conditions: background description of the model; cited from earlier work

Row | SMILES | Efficacy compared with methylphenidate in the ability to wait (young Wistar rats [1]) | Efficacy compared with methylphenidate in the ability to wait (young Wistar rats [1]; listed as BLK-010) | Improvement of impulsiveness, animals responding (young Wistar rats [1]; BLK-010 1 mg/kg IP, n = 6) | Effect on ability to wait relative to the control (young Wistar rats [1]) | Mean, Medication (choices of the large reward deferred by 30 s) (young Wistar rats [1]; phacetoperane 1 mg/kg, n = 6) | Habituation (before and after treatment) (young Wistar rats [1]; phacetoperane 1 mg/kg) | Mean, Cont-Post (choices of the large reward deferred by 30 s) (young Wistar rats [1]; n = 6) | Mean, Cont-Pre (choices of the large reward deferred by 30 s) (young Wistar rats [1]) | Effect on number of times the large but deferred reward is chosen (young Wistar rats [2])
1 | CC(=O)OC(c1ccccc1)C1CCCCN1 (racemic) [Phacetoperane, threo diastereoisomer of alpha-phenyl-2-piperidinemethanol acetate] | always found to be more effective than methylphenidate | significantly and statistically more effective than methylphenidate | found in all the animals | improve the ability to wait | 4.17 | does not lead to any habituation | 0.33 | 1.17 | 
2 | COC(=O)C(c1ccccc1)C1CCCCN1 (stereo not shown) [Methylphenidate, methylphenidate] |  |  |  | improve the ability to wait | 3.67 |  | 0.83 | 1.17 | seems to increase the number of times the large but deferred reward is chosen
